Earlier results in PMC10465233, “Lys-urea-Aad, Lys-urea-Cmc and Lys-urea-Cms as potential pharmacophores for the design of PSMA-targeted radioligands to reduce off-target uptake in kidneys and salivary glands” (Theranostics, 2023).
Where two headings read alike, the source gives them in different places.

Tested on: LNCaP tumor-bearing mice
Settings: cited from earlier work; for Kidney uptake / Tumor uptake / Salivary gland uptake: 1 h post-injection; for Salivary gland uptake: unreported data in b5
[1] = vs Glu-containing [^68Ga]Ga-HTK03041, 1 h post-injection

Row | SMILES | Kidney uptake [%ID/g] | Tumor uptake [%ID/g] | Salivary gland uptake [%ID/g] | Peaked tumor uptake [%ID/g] | Tumor uptake (listed as [^68Ga]HTK03149) | Reduction in kidney uptake [1] [%] | Reduction in salivary gland uptake [1] [%]
1 | O=C([O-])CN1CCN(CC(=O)[O-])CCN(CC(=O)NCC2CCC(C(=O)NC(Cc3c4ccccc4cc4ccccc34)C(=O)NCCCCC(NC(=O)NC(CCC(=O)O)C(=O)O)C(=O)O)CC2)CCN(CC(=O)[O-])CC1.[68Ga+3] (stereo not shown) [[^68Ga]Ga-HTK03141] | 170±26.4 | 23.1±6.11 | 4.99±0.88 | 23.1 | – | – | –
2 | O=C([O-])CN1CCN(CC(=O)[O-])CCN(CC(=O)NCC2CCC(C(=O)NC(Cc3c4ccccc4cc4ccccc34)C(=O)NCCCCC(NC(=O)NC(CCCC(=O)O)C(=O)O)C(=O)O)CC2)CCN(CC(=O)[O-])CC1.[68Ga+3] (stereo not shown) [[^68Ga]Ga-HTK03149] | 4.15±1.46 | 19.1±6.37 | 0.22±0.06 | – | ~ 20 %ID/g | > 95 | > 95
